Experimental data from the supplement of paper PMC4862054.

How the values were obtained:
Experiment in all cases: normalised response (% of control), CellTox Green; higher = less cell death (100 = DMSO, 0 = benzethonium chloride kill control)
Settings in all cases: incubation time: 72 h
[1] = tested on: CAL-51
How it was run: (§1)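 Breast cancer cell lines were exposed for 72 h in 384-well plates to compound at 5 concentrations, 10-fold apart, covering a 10,000-fold range fixed for each compound. Plates were read for CellTox Green fluorescence and CellTiter-Glo luminescence and normalised to 0.1 % DMSO (100) and a positive kill control (0). Each value is the normalised signal at one concentration of the series.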

[2] = tested on: HDQ-P1
How it was run: as §1

[3] = tested on: HCC1143
How it was run: as §1

[4] = tested on: MDA-MB-231
How it was run: as §1

[5] = tested on: DU-4475
How it was run: as §1

[6] = tested on: HCC1599
How it was run: as §1

[7] = tested on: MDA-MB-468
How it was run: as §1

[8] = tested on: HCC1937
How it was run: as §1

[9] = tested on: BT-549
How it was run: as §1

[10] = tested on: Hs578T
How it was run: as §1

[11] = tested on: CAL-120
How it was run: as §1

[12] = tested on: MFM-223
How it was run: as §1

[13] = tested on: CAL-148
How it was run: as §1

[14] = tested on: CAL-85-1
How it was run: as §1

[15] = tested on: MCF-10A
How it was run: as §1

[16] = tested on: BT-474
How it was run: as §1

[17] = tested on: MDA-MB-436
How it was run: as §1

[18] = tested on: MDA-MB-453
How it was run: as §1

| Compound | normalised response [1] [%] | normalised response [2] [%] | normalised response [3] [%] | normalised response [4] [%] | normalised response [5] [%] | normalised response [6] [%] | normalised response [7] [%] | normalised response [8] [%] | normalised response [9] [%] | normalised response [10] [%] | normalised response [11] [%] | normalised response [12] [%] | normalised response [13] [%] | normalised response [14] [%] | normalised response [15] [%] | normalised response [16] [%] | normalised response [17] [%] | normalised response [18] [%] |
| --- | --- | --- | --- | --- | --- | --- | --- | --- | --- | --- | --- | --- | --- | --- | --- | --- | --- | --- |
| COc1ncc(-c2ccc3nccc(-c4ccnnc4)c3c2)cc1NS(=O)(=O)c1ccc(F)cc1F (100 nM) | 70 | 86 | 110 | 91.2 | 99.6 | 106 | 89.5 | 90.5 | 94.8 | 85.2 | 102 | 76.5 | 67 | 99.1 | 97.7 | 69.1 | 93.5 | 95 |
| CCOc1cc2ncc(C#N)c(Nc3ccc(OCc4ccccn4)c(Cl)c3)c2cc1NC(=O)/C=C/CN(C)C [Neratinib] (1000 nM) | 95.8 | 55.7 | 105 | 6.81 | 94.7 | 106 | -68.6 | 95.7 | 101 | 120 | 71.7 | 100 | 77.3 | 54 | 115 | 77.1 | 104 | 99.9 |
| CC(=O)O[C@H]1C(=O)[C@@]2(C)[C@H]([C@H](OC(=O)c3ccccc3)[C@]3(O)C[C@H](OC(=O)[C@H](O)[C@@H](NC(=O)c4ccccc4)c4ccccc4)C(C)=C1C3(C)C)[C@]1(OC(C)=O)CO[C@@H]1C[C@@H]2O [Paclitaxel] (1000 nM) | 38.7 | 81.5 | 87.3 | -30 | 95.4 | 86.6 | -32.9 | 71 | 56.5 | 18.5 | 82.8 | 58.8 | 86.3 | 41.7 | 1.34 | 43.1 | 49.4 | 92.1 |
| CN1CCN(c2ccc3nc(-c4c(N)c5c(F)cccc5[nH]c4=O)[nH]c3c2)CC1 [Dovitinib] (1000 nM) | 105 | 106 | 104 | 88.5 | 98.6 | 106 | 167 | 128 | 131 | 80.1 | 94 | 102 | 103 | 97.8 | 104 | 97.7 | 95.8 | 101 |
| CCS(=O)(=O)c1cccc(-c2cc(C(=O)NC3CCN(C)CC3)c(C)c3[nH]c4ncc(C)cc4c23)c1 [TAK-901] (1000 nM) | 36.5 | 55 | 87.8 | 57.7 | 97 | 97.1 | 74.3 | 95.2 | 41 | 106 | 84.2 | 85 | 84.6 | 58.9 | 90 | 91.5 | 69.2 | 105 |
| Cn1cnc2c(F)c(Nc3ccc(Br)cc3F)c(C(=O)NOCCO)cc21 [MEK-162] (100 nM) | 103 | 87.6 | 115 | 50.2 | 87.3 | 90.6 | 139 | 60.2 | 111 | 76.4 | 99.8 | 91.5 | 98.4 | 98.2 | 104 | 101 | 105 | 106 |
| CC(C)C[C@H](NC(=O)[C@H](Cc1ccccc1)NC(=O)c1cnccn1)B(O)O [Bortezomib] (100 nM) | -29 | 9.79 | 83.5 | -41.1 | 89.7 | 87.5 | -55.4 | -5.94 | 55.3 | 15.4 | 35.5 | 39.2 | -26.8 | -7.21 | 74 | 67.6 | 28.8 | 92.7 |
| C#Cc1cccc(Nc2ncnc3cc(OC)c(OCCCCCCC(=O)NO)cc23)c1 [CUDC-101] (10000 nM) | 4.75 | 84.6 | 91.9 | 25.8 | 82.4 | 79.8 | -22.4 | 97.7 | 108 | 29.1 | 29.1 | 36.9 | -3.26 | -59 | 48.6 | 10.6 | 57.5 | 83.7 |
| COC1=C2C[C@@H](C)C[C@H](OC)[C@H](O)[C@@H](C)/C=C(\C)[C@H](OC(N)=O)[C@@H](OC)/C=C\C=C(/C)C(=O)NC(=CC1=O)C2=O [Geldanamycin] (10000 nM) | 39.3 | 65.2 | 99.5 | 6.32 | 68.2 | 99.2 | -27.4 | -41.7 | 99 | 98 | 75.1 | 44.1 | 54.8 | 3.38 | -24.5 | 35.9 | 80.8 | 82 |
| Cn1c(=O)c(F)c(Nc2ccc(I)cc2F)c2c(=O)n(C[C@@H](O)CO)cnc21 [TAK-733] (1000 nM) | 105 | 94.6 | 128 | 64.2 | 70.7 | 113 | 87.6 | 102 | 119 | 38 | 87.2 | 104 | 98.7 | 41 | 110 | 102 | 97.9 | 109 |
| CCOc1cc2ncc(C#N)c(Nc3ccc(OCc4ccccn4)c(Cl)c3)c2cc1NC(=O)/C=C/CN(C)C [Neratinib] (100 nM) | 115 | 99.5 | 115 | 109 | 106 | 107 | 75.7 | 96 | 105 | 90.3 | 106 | 103 | 100 | 93.7 | 114 | 78.8 | 97.8 | 110 |
| O=c1[nH]cc(F)c(=O)[nH]1 [Fluorouracil] (1000 nM) | 114 | 107 | 110 | 106 | 105 | 101 | 96.7 | 94.5 | 109 | 60.9 | 105 | 102 | 98.5 | 101 | 111 | 101 | 101 | 87.5 |
| COc1c(C)cnc(Cn2cnc3c(Cl)nc(N)nc32)c1C [BIIB021] (10000 nM) | 58.2 | 40.1 | 126 | 48.7 | 80.3 | 113 | 96.8 | 107 | 130 | 89.7 | 94.9 | 93.4 | 49.2 | 39 | 52.8 | 49.4 | 106 | 93.5 |
| C#Cc1cccc(Nc2ncnc3cc(OC)c(OCCCCCCC(=O)NO)cc23)c1 [CUDC-101] (1000 nM) | 86.1 | 101 | 85.1 | 49.2 | 81.3 | 82.2 | 35.1 | 113 | 142 | 98.8 | 90.9 | 85 | 74.4 | -33 | 100 | 83.7 | 72.7 | 65.4 |
| CC(C)C[C@H](NC(=O)[C@H](Cc1ccccc1)NC(=O)c1cnccn1)B(O)O [Bortezomib] (1000 nM) | 15.4 | 9.5 | 27.3 | -42.8 | 76.1 | 81.6 | -84 | 25.3 | 43.7 | 39.2 | 14.2 | 53.7 | 38 | -48 | 15.3 | 59.7 | 6.1 | 70.9 |
| COc1ncc(-c2ccc3nccc(-c4ccnnc4)c3c2)cc1NS(=O)(=O)c1ccc(F)cc1F (1000 nM) | 46.1 | 78.8 | 107 | 64.3 | 83.9 | 88.6 | -111 | 7.68 | 70.9 | 35.8 | 102 | 78.7 | 45 | 52.1 | 73.1 | 36.8 | 104 | 73.4 |
| CC(=O)O[C@H]1C(=O)[C@@]2(C)[C@H]([C@H](OC(=O)c3ccccc3)[C@]3(O)C[C@H](OC(=O)[C@H](O)[C@@H](NC(=O)c4ccccc4)c4ccccc4)C(C)=C1C3(C)C)[C@]1(OC(C)=O)CO[C@@H]1C[C@@H]2O [Paclitaxel] (100 nM) | 25.6 | 77.4 | 99.6 | -43 | 90.4 | 82.7 | 4.61 | 84.6 | 65.9 | 48.5 | 81.6 | 51.4 | 66.4 | 21.5 | -6.43 | 49.4 | 62.8 | 98.7 |
| COc1c(C)cnc(Cn2cnc3c(Cl)nc(N)nc32)c1C [BIIB021] (1000 nM) | 71.2 | 90.4 | 90.5 | 71.8 | 68.5 | 107 | 135 | 108 | 139 | 63.4 | 95.5 | 99.3 | 26.9 | 71.3 | 1.93 | 77.3 | 80.9 | 102 |
| C[C@@]1(C(=O)Nc2ccc(F)nc2)CCCN1c1nc(Nc2cc(C3CC3)n[nH]2)c2cccn2n1 (1000 nM) | 49.5 | 82.1 | 68.5 | 76.2 | 90.6 | 97.6 | 52.5 | 93.8 | 104 | 110 | 98.1 | 76.7 | 88.8 | 95 | 80.4 | 97.7 | 90.8 | 104 |
| CS(=O)(=O)OCCCCOS(C)(=O)=O [Busulfan] (10000 nM) | 113 | 95.2 | 121 | 108 | 102 | 82 | 96.5 | 106 | 108 | 94.5 | 103 | 97.1 | 106 | 103 | 104 | 101 | 74 | 103 |
| C[C@@]1(C(=O)Nc2ccc(F)nc2)CCCN1c1nc(Nc2cc(C3CC3)n[nH]2)c2cccn2n1 (10000 nM) | 18.7 | 34.9 | -57.9 | 49.8 | 90.2 | 90.1 | 49.8 | 104 | 65.3 | 82.1 | 26.9 | 71.2 | 59.1 | 67.8 | 25.8 | 95.3 | 90.4 | 109 |
